≈ marks a conversion by molar mass, not a printed value. Like-named read-outs stand apart in the source and are kept apart here.
Experiments:
Serpulina hyodysenteriae = experiment: MIC, agar dilution method, anaerobic, Serpulina hyodysenteriae; type: cell-based, S. hyodysenteriae ATCC 27164; conditions: for MIC: Brachyspira hyodysenteriae, ATCC27164
S. aureus = experiment: MIC, agar dilution method, S. aureus; type: cell-based; conditions: Staphylococcus aureus, FDA209P; S. aureus FDA 209P
Clostridium perfringens = experiment: microbe, parasite or virus in culture; type: cell-based, C. perfringens ATCC 13124; conditions: for MIC: Clostridium perfringens, ATCC13124
Mycoplasma = experiment: MIC to Mycoplasmas (summary in words); type: cell-based
Eimeria tenella = experiment: Growth inhibition activities to avian coccidium in primary chicken kidney cells; type: cell-based; conditions: for minimal effective concentration: Eimeria tenella
Procedure: The kidneys of SPF new born chicken was sterilely removed, which was treated with trypsin and the resultant primary kidney cells were cultured in 24-well plate. Monolayer culture after cultured for 3 days was treated simultaneously with compounds adjusted to predetermined concentration and sporozoit obtained by artificial excystation, which was cultured a 40° C. Premature and mature schizonts were observed under microscope, and the growth inhibition activities (suppression rate) for each treatment group were calculated at a proportion of the number of schizonts for the sporozoit-inoculated, compound-untreated control group (100%).

[1] = Cytotoxicity to primary chicken kidney culture cells; type: cell-based; conditions: primary chicken kidney cells
[2] = tested on: primary kidney culture cells; experiment: as above; type: cell-based; conditions: at the same concentration
mice spleen cells [3] = experiment: Suppression of reaction of mice spleen cells to Concanavalin A, in vitro (MTT); type: cell-based, BDF1 mice; conditions: for inhibition at 0.312 µg/mL: 312 ng/ml; for inhibition at 0.625 µg/mL: 625 ng/ml
Procedure: (§1) To each well of 96 well microtiter plate were added 5×10^5 spleen cells of BDF1 mice suspended in 0.1 ml of RPMI 1640 medium supplemented with 10% bovine fetus serum (supplemented with 2 mM sodium hydrogen carbonate, 50 Units/ml of penicillin, 50 μg/ml of streptomycin, and 5×10^-5 M of 2-mercaptoethanol), and then, 5 μg/ml of Concanavalin A (Con A) or 10 μg/ml of lypopolysaccaride (LPS) and various concentrations of test substance, of which final volume was adjusted to 0.2 ml. Test substances were dissolved in dimethylsulfoxide (DMSO), diluted with RPMI 1640 stated above, and added to the wells so that final concentration of the substances becomes less than 10000 ng/ml. The 96-well microtiter plates were cultured at 37° C. for 3 days in an incubator which was maintained at the humidity of 100%, 5% of carbon dioxide and 95% of air. After cultivation is completed, […] of 6 mg/ml solution of MTT {3-(4,5-dimethylthiazol-2yl)-2,5 diphenyltetrazoliumbromide} (Sigma) is added to each well, which is cultured at 37° C. for […] under the same conditions. After cultivation is completed, formazan formed is dissolved by adding 50 μl of a solution of 20% dodecyl sodium sulfonate (SDS) in 0.02N hydrochloric acid and kept standing at 37° C. for 24 hours. The absorbance (OD) of the formazan which was produced in proportion to the number of alive cells, was determined by using immunoreader equipped with 570 nm filter (see The Journal of Immunological Methods, Vol.65, 55-63, 1983).
(§2) Cell growth inhibition rate and IC50 value were calculated according to the correlation between the concentration and the absorbance for each substance.

mice spleen cells [4] = experiment: Suppression of reaction of mice spleen cells to lypopolysaccaride (LPS), in vitro (MTT); type: cell-based, BDF1 mice; conditions: for inhibition at 0.312 µg/mL: 312 ng/ml; for inhibition at 0.625 µg/mL: 625 ng/ml
Procedure: as §1, §2

M. pneumoniae = experiment: MIC, liquid dilution method, Mycoplasma pneumoniae; conditions: Mycoplasmoides pneumoniae
M. gallisepticum [5] = experiment: MIC, liquid dilution method, Mycoplasma gallisepticum; conditions: Mycoplasmoides gallisepticum
M. hyopneumoniae = experiment: MIC, liquid dilution method, Mycoplasma hyopneumoniae; conditions: Mesomycoplasma hyopneumoniae
Branhamella catarrhalis = experiment: MIC, Branhamella catarrhalis; type: cell-based; conditions: Moraxella catarrhalis; B. catarrhalis A 25238
Procedure: Thus, sensitivity-disc medium (Nissui) was used as a sensitivity determination medium, to which about 1 μl of 10^6 CFU/ml of the bacterial suspension was inoculated.

C. trachmatis = experiment: MIC, C. trachmatis; type: cell-based; conditions: C. trachmatis D/UW-3/CX
Candida albicans = experiment: Antifungal activity, micro-liquid dilution method, Candida albicans; type: cell-based, Candida albicans strain Ca-15; conditions: 30° C.; for Antifungal activities: IC50: 24 hours; for IC50: Candida albicans, 24 h, read-out: Antifungal activities: IC50
Procedure: (§3) Antifungal activities of the compounds to Candida albicans (strain Ca-15) and Asperilhm fumigatus (strain MA), representative pathogenic fungi, were determined by micro-liquid dilution method using 96-well microplates. A fungal suspension stored under freezing was adjusted to 1×1 O^5 CFU/ml by medium, of which 100 μl portions were charged into each well. The compound of the present invention was dissolved in dimethylsulfoxide (DMSO). Using the resultant solution, 2-fold dilution series were prepared together with the fungal suspension charged into the wells. YNB medium and RPMI medium were used. After cultured for 24 hours at 30° C., evaluation was performed by detecting the turbidity (wave length: 595 nm) using microplate reader.

Aspergillus fumigatus = experiment: Antifungal activity, micro-liquid dilution method, Aspergillus fumigatus; type: cell-based, Aspergillus fumigatus strain MA; conditions: 30° C.; for Antifungal activities: IC50: 24 hours; for IC50: Aspergillus fumigatus, 24 h, read-out: Antifungal activities: IC50
Procedure: as §3

E. avium = experiment: MIC, agar dilution method, E. avium; conditions: Enterococcus avium
M. gallisepticum [6] = experiment: In vivo evaluation test for M. gallisepticum in chickens (air-sac lesions); conditions: 6 chickens tested
[7] = more than 80% of suppression rate regarded as effective, read-out: Effective dose (growth inhibition)
[8] = read-out: Concentrations showing growth inhibition effects
[9] = Mus musculus, 72 h, Con A, read-out: Suppression rate
[10] = Mus musculus, 72 h, LPS, read-out: Suppression rate

For `CCCCCc1cccc(OC)c1C1=NC(C2SCC(C(O)C(C)(C)C3=NC(C)(C(=O)O)CS3)N2C)CS1` (stereo not drawn) [Compound 7], the “activity to Serpulina (Treponema) hyodysenteriae” value (Serpulina hyodysenteriae) was “showed the activity”, the MIC (Serpulina hyodysenteriae) was 1.56 µg/mL (≈ 2.69 µM) and the MIC (S. aureus) was 1.56 µg/mL (≈ 2.69 µM). For the same compound, the “activity to Clostridium perflingens” value (Clostridium perfringens) was “showed the activity”, the MIC (Clostridium perfringens) was 0.1 µg/mL (≈ 0.172 µM) and the “MICs to Mycoplasmas” value (Mycoplasma) was “low MICs”. The “growth inhibition activities” value (Eimeria tenella) was “strong growth inhibition activities”, the minimal effective concentration (Eimeria tenella; [7]) was 0.156 µg/mL and the minimal effective concentration (Eimeria tenella; [8]) was 156 µg/mL. For the same compound, the MCC [1] was 10 µg/mL, the “cytotoxicity to the primary kidney culture cells” value [2] was “did not show any cytotoxicity” and the “suppression of the reaction to Con A of spleen cells” value (mice spleen cells [3]) was “suppressed”. It also gave an inhibition at 0.039 µg/mL (mice spleen cells [3]; Mus musculus, 72 h, Con A, 39 ng/ml, read-out: Suppression rate) of 10%, an inhibition at 0.078 µg/mL (mice spleen cells [3]; Mus musculus, 72 h, Con A, 78 ng/ml, read-out: Suppression rate) of 16.5% and an inhibition at 0.156 µg/mL (mice spleen cells [3]; Mus musculus, 72 h, Con A, 156 ng/ml, read-out: Suppression rate) of 60.7%. For the same compound, the inhibition at 0.312 µg/mL (mice spleen cells [3]; [9]) was 98%, the inhibition at 0.625 µg/mL (mice spleen cells [3]; [9]) was 101% and the IC50 (mice spleen cells [3]; Mus musculus, Con A) was 0.129 µg/mL (≈ 0.222 µM). The “suppression of the reaction to LPS of spleen cells” value (mice spleen cells [4]) was “suppressed”, the inhibition at 0.039 µg/mL (mice spleen cells [4]; Mus musculus, 72 h, LPS, 39 ng/ml, read-out: Suppression rate) was 17.2% and the inhibition at 0.078 µg/mL (mice spleen cells [4]; Mus musculus, 72 h, LPS, 78 ng/ml, read-out: Suppression rate) was 42.5%. It also gave an inhibition at 0.156 µg/mL (mice spleen cells [4]; Mus musculus, 72 h, LPS, 156 ng/ml, read-out: Suppression rate) of 80%, an inhibition at 0.312 µg/mL (mice spleen cells [4]; [10]) of 98.6% and an inhibition at 0.625 µg/mL (mice spleen cells [4]; [10]) of 102%. It also gave an IC50 (mice spleen cells [4]; Mus musculus, LPS) of 0.084 µg/mL (≈ 0.145 µM), an MIC (M. pneumoniae) of 0.1 µg/mL (≈ 0.172 µM) and an MIC (M. gallisepticum [5]) of 1.56 µg/mL (≈ 2.69 µM). For the same compound, the MIC (M. hyopneumoniae) was 0.1 µg/mL (≈ 0.172 µM).

For `CCCCCc1cccc(O)c1C1=NC(C2SCC(C(O)C(C)(C)C3=NC(C)(C(=O)O)CS3)N2C)CS1` (stereo not drawn) [Compound 9], the MIC (Branhamella catarrhalis) was 3.13 µg/mL (≈ 5.53 µM), the MIC (C. trachmatis) was 16 µg/mL (≈ 28.3 µM) and the “Antifungal activities: IC50” value (Candida albicans; RPMI medium) was 1.6 µg/mL. For the same compound, the “Antifungal activities: IC50” value (Candida albicans; YNB medium) was 6.3 µg/mL, the “Antifungal activities: IC50” value (Aspergillus fumigatus; RPMI medium) was 0.2 µg/mL and the “Antifungal activities: IC50” value (Aspergillus fumigatus; YNB medium) was 3.2 µg/mL. The MIC (E. avium) was 1.56 µg/mL (≈ 2.76 µM), the MIC (M. pneumoniae) was 0.00625 µg/mL (≈ 0.011 µM) and the MIC (M. gallisepticum [5]) was 0.2 µg/mL (≈ 0.353 µM). The MIC (M. hyopneumoniae) was 0.025 µg/mL (≈ 0.0442 µM), the “air-sac lesions (the number of chickens): (+) slight” value (“air-sac lesions … (+) slight” below) (M. gallisepticum [6]; 25 mg/kg × 1, orally) was 0 and the “air-sac lesions (the number of chickens): (++-+++) moderate to severe” value (“air-sac lesions … to severe” below) (M. gallisepticum [6]; 25 mg/kg × 1, orally) was 2. The “air-sac lesions (the number of chickens): (-) non” value (shortened to “air-sac lesions … (-) non”) (M. gallisepticum [6]; 25 mg/kg × 1, orally) was 4, the “number of chickens having lesions” value (M. gallisepticum [6]; 25 mg/kg × 1, orally) was 2 and the “air-sac lesions … (+) slight” value (M. gallisepticum [6]; 50 mg/kg × 1, orally) was 1. For the same compound, the “air-sac lesions … to severe” value (M. gallisepticum [6]; 50 mg/kg × 1, orally) was 1, the “air-sac lesions … (-) non” value (M. gallisepticum [6]; 50 mg/kg × 1, orally) was 4 and the “number of chickens having lesions” value (M. gallisepticum [6]; 50 mg/kg × 1, orally) was 2. The “air-sac lesions … (+) slight” value (M. gallisepticum [6]; 100 mg/kg × 1, orally) was 0, the “air-sac lesions … to severe” value (M. gallisepticum [6]; 100 mg/kg × 1, orally) was 1 and the “air-sac lesions … (-) non” value (M. gallisepticum [6]; 100 mg/kg × 1, orally) was 5. For the same compound, the “number of chickens having lesions” value (M. gallisepticum [6]; 100 mg/kg × 1, orally) was 1.

For `CCCCCc1cccc(O)c1C1=NC(C2SCC(C(OCOC)C(C)(C)C3=NC(C)(C(=O)OCOC)CS3)N2C)CS1` (stereo not drawn) [Compound 19], the “growth inhibition activities” value (Eimeria tenella) was “strong growth inhibition activities”, the minimal effective concentration (Eimeria tenella; [7]) was 0.156 µg/mL and the minimal effective concentration (Eimeria tenella; [8]) was 156 µg/mL. For the same compound, the MCC [1] was 10 µg/mL, the “cytotoxicity to the primary kidney culture cells” value [2] was “did not show any cytotoxicity” and the MIC (M. pneumoniae) was 0.39 µg/mL (≈ 0.596 µM). It also gave an MIC (M. gallisepticum [5]) of 6.25 µg/mL (≈ 9.56 µM) and an MIC (M. hyopneumoniae) of 1.56 µg/mL (≈ 2.39 µM).

In the case of `CCCCCc1cccc(O)c1C1=NC(C2SCC(C(O)C(C)(C)C3=NC(C)(C(=O)OCOC)CS3)N2C)CS1` (stereo not drawn) [Compound 20], the “activity to Serpulina (Treponema) hyodysenteriae” value (Serpulina hyodysenteriae) is reported as “showed the activity”, the MIC (Serpulina hyodysenteriae) is reported as 1.56 µg/mL (≈ 2.56 µM) and the “activity to Clostridium perflingens” value (Clostridium perfringens) is reported as “showed the activity”. The MIC (Clostridium perfringens) was 3.13 µg/mL (≈ 5.13 µM), the “MICs to Mycoplasmas” value (Mycoplasma) was “low MICs” and the IC50 (Candida albicans; RPMI medium) was 3.2 µg/mL (≈ 5.25 µM). The IC50 (Candida albicans; YNB medium) was greater than 100 µg/mL, the IC50 (Aspergillus fumigatus; RPMI medium) was greater than 100 µg/mL and the IC50 (Aspergillus fumigatus; YNB medium) was greater than 100 µg/mL. The minimal effective concentration (Eimeria tenella; [7]) was 0.625 µg/mL, the MCC [1] was greater than 10 µg/mL and the “suppression of the reaction to Con A of spleen cells” value (mice spleen cells [3]) was “suppressed”. It also gave an inhibition at 0.312 µg/mL (mice spleen cells [3]; [9]) of 0%, an inhibition at 0.625 µg/mL (mice spleen cells [3]; [9]) of 102% and an inhibition at 1.25 µg/mL (mice spleen cells [3]; Mus musculus, 72 h, Con A, 1250 ng/ml, read-out: Suppression rate) of 101%. The inhibition at 2.5 µg/mL (mice spleen cells [3]; Mus musculus, 72 h, Con A, 2500 ng/ml, read-out: Suppression rate) was 101%, the IC50 (mice spleen cells [3]; Mus musculus, Con A) was 0.506 µg/mL (≈ 0.83 µM) and the “suppression of the reaction to LPS of spleen cells” value (mice spleen cells [4]) was “suppressed”. The inhibition at 0.312 µg/mL (mice spleen cells [4]; [10]) was 2.1%, the inhibition at 0.625 µg/mL (mice spleen cells [4]; [10]) was 98.8% and the inhibition at 1.25 µg/mL (mice spleen cells [4]; Mus musculus, 72 h, LPS, 1250 ng/ml, read-out: Suppression rate) was 98.2%. It also gave an inhibition at 2.5 µg/mL (mice spleen cells [4]; Mus musculus, 72 h, LPS, 2500 ng/ml, read-out: Suppression rate) of 96.3%, an IC50 (mice spleen cells [4]; Mus musculus, LPS) of 0.38 µg/mL (≈ 0.623 µM) and an MIC (M. pneumoniae) of no more than 0.00625 µg/mL. For the same compound, the MIC (M. gallisepticum [5]) was 0.1 µg/mL (≈ 0.164 µM) and the MIC (M. hyopneumoniae) was 0.025 µg/mL (≈ 0.041 µM).

Source: patent US6004952A, “Micacocidin derivatives” (Shinogi & Co., Ltd., priority 1996, dated 1999)
